Each structure is given as a SMILES string. Where a name gives a salt, the structure may show the parent alone. Read-outs that look alike come from different tables or passages of the source.

Assay [1] relates to mixed bacterial inoculum. The settings on record: for preservative efficacy (in words) / potentiation of the cationic compounds (in words): AIRFLEX 192; for Inoculations Passed: AIRFLEX 192 VAE polymer; for potentiation of the cationic compounds (in words): other metal chelating agent with cationic compound. The text has this: The following procedure was used to assess the preservative efficacy of several cationic compounds in an anionic surfactant stabilized VAE copolymer emulsion containing less than 1000 ppm vinyl acetate monomer:
(§1) Aeromonas hydrophilia, Alcaligenes faecalis, Corynebacterium ammoniagenes, Enterobacter aerogenes, Escherichia coli, Klebsiella pneumoniae, Pseudomonas aeruginosa, Proteus vulgaris, Providencia rettgeri, Pseudomonas stutzeri, Shewanella putrefaciens, Serratia liquefaciens, Acinetobacter baumannii, Burkholderia cepacia, Chryseobacterium meningosepticum, Sphingobacterium spiritivorum, Ralstonia pickettii, and Gluconoacetobacter liquefaciens.
(§2) Each bacterial culture was individually grown on nutrient agar slants, except GABL was grown on potato dextrose agar slants, by inoculating the agar surfaces. The nutrient agar slants were incubated for 24-48 hours at 30° C. and the potato dextrose agar slants were incubated for 48-72 hours at 25° C. […] The washings from all of the slants were combined into one sterile, Erlenmeyer flask.
(§3) Rapid Automated Bacterial Impedance Technique (RABIT), supplied by Microbiology International, and manufactured by Don Whitley Scientific, Ltd. utilizes the principal of impedance microbiology to detect and assess microbial activity in a given sample. Using the RABIT, microbial metabolism is monitored by measuring the amount of carbon dioxide produced by actively respiring microorganisms. The electrodes in the RABIT test cells are partially covered with alkaline agar containing potassium hydroxide. As inoculated test samples are monitored on the RABIT, carbon dioxide produced from microbial metabolism is absorbed by the alkaline agar resulting in a change in conductivity. Conductivity is monitored with time and the time to reach a pre-specified rate of reduction in conductivity is termed the time to detection (TTD). Therefore, the shorter the TTD, the higher the number of microorganisms present. Failure can be defined as three successive decreases in conductivity equal to or greater than a pre-specified value (−10 microSiemens is recommended by the manufacturer) at any time during the 72 hour RABIT monitoring period. Alternatively, failure can be defined as a pre-specified total change in conductivity.
(§4) Samples (50 g each) of each test emulsion containing a test antimicrobial agent were inoculated with 1.0 mL of the mixed bacterial inoculum. After mixing well, the samples were then placed in a 30° C. incubator. After 1, 2, and 6 days of incubation, each sample was streak plated onto nutrient agar and potato dextrose agar to assess the level of surviving microorganisms. The nutrient agar plates were incubated at 30° C. for 48 hours before assessing the growth. […] On the seventh day of incubation, each test emulsion sample was inoculated again with a freshly prepared mixed bacterial inoculum, mixed well, then placed back into the incubator. The samples were again streak plated onto nutrient agar and potato dextrose agar after incubating for 1, 2, and 6 days since the second inoculation. On the fourteenth day after the test was initiated, the test emulsions were inoculated a third time with another freshly prepared mixed bacterial inoculum and then placed back into the incubator. The samples were again streak plated onto nutrient agar and potato dextrose agar after 1, 2, 6, and 13 days of incubation since the third inoculation to assess surviving microorganisms. Test failure is defined as a microbial viable count >300 CFU/10 μL observed from the nutrient agar or potato dextrose agar streak plate assessments.
(§5) A small amount of a microbial nutrient (typically yeast extract) was added to each emulsion test sample (50 g) containing a test antimicrobial agent. The resulting samples were then inoculated with 1.0 mL of the mixed bacterial inoculum. After mixing well, an aliquot (5 g) of each test sample was placed into separate RABIT indirect conductivity tubes.

The test system of assay [2] is mixed bacterial inoculum. The settings on record: for preservative efficacy (in words) / potentiation of the cationic compounds (in words): AIRFLEX 410; for Inoculations Passed: AIRFLEX 410 VAE polymer; for potentiation of the cationic compounds (in words): other metal chelating agent with cationic compound.
Excerpt: as §1, §2, §3, §4
as §5, with “tubes. The indirect conductivity tubes were then placed into the RABIT incubator modules set at 30° C. and the conductivity changes monitored for up to 72 hours. The remainder of each test sample was stored in a 30° C. incubator during the RABIT monitoring period.” for “tubes.”

The subject of assay [3] is yeasts and molds. Briefly: Fungal biochallenge test in Airflex 410 VAE polymer emulsion. The settings on record: for Growth on PDA / Surface Fungal Growth: 200 ppm; for Growth on PDA: streak plate after 28 days incubation; for Surface Fungal Growth: visual after 28 days at 25° C.
The mark [4] stands for this setting: cationic compound alone, dosage of 300 ppm or similar dosages.
Setting [5] is: biocide dosage 300 ppm active ingredient.
[6] abbreviates: metal chelating agent by itself.
Where [7] appears, read: biocide dosage 1000 ppm active ingredient.

Turning to `CCCCCCCCCC[N+](C)(C)CCCCCCCCCC.[Cl-]` [BTC 1010, Didecyldimethylammonium chloride], the “preservative efficacy (in words)” value in assay [1] (setting [4]) and in assay [2] (setting [4]) was “no preservative efficacy” each time. Besides, the “Inoculations Passed” value in assay [1] (setting [5]) and in assay [2] (setting [5]) was 0 each time. Moreover, the “Growth on PDA” value in assay [3] was “Dense”. Also, the “Surface Fungal Growth” value in assay [3] was “Moderate Growth”.
Regarding `CCCCCCCCCCCCCCCC[n+]1ccccc1` [CPC, cetylpyridinium chloride], the “Inoculations Passed” value in assay [1] (setting [5]) and in assay [2] (setting [5]) was 0 each time.
Regarding `O=C(O)CC(O)(CC(=O)O)C(=O)O` [Citric acid, sodium salt], the “potentiation of the cationic compounds (in words)” value in assay [1] and in assay [2] was “do not exhibit potentiation” in each case. In assay [1] (setting [5]), the “Inoculations Passed” value worked out at 0.
Take `CCCCCCCCCCCCNC(=N)N.Cl` [DGH, n-dodecylguanidine hydrochloride]: the “Inoculations Passed” value in assay [1] (biocide dosage 400 ppm active ingredient) and in assay [2] (setting [5]) was 0 each time.
On to `O=C([O-])CN(CCN(CC(=O)[O-])CC(=O)[O-])CC(=O)[O-].[Na+].[Na+].[Na+].[Na+]` [EDTA salt, tetrasodium salt of ethylenediamine tetraacetic acid], for which the “preservative efficacy (in words)” value in assay [1] (setting [6]) and in assay [2] (setting [6]) was “inadequate” in each case. The “Inoculations Passed” value in assay [1] (setting [7]) and in assay [2] (setting [7]) was 0 each time. Further, the “Growth on PDA” value in assay [3] was “Dense”. Further, in assay [3], the “Surface Fungal Growth” value is reported as “Slight Growth”. Besides, in assay [3] (used by itself), the “protection against the growth of yeasts and molds (in words)” value is “no protection”.
Turning to `O=C(O)/C=C\C(=O)O` [Maleic acid, sodium salt], the “potentiation of the cationic compounds (in words)” value in assay [1] and in assay [2] was “do not exhibit potentiation” throughout. Besides, the “Inoculations Passed” value in assay [1] (setting [5]) came to 0.
With `O=C([O-])c1ccccc1O.[Na+]` [Salicylic acid, sodium salt], in assay [1] (setting [5]), the “Inoculations Passed” value was 0.
Still for that read-out and setting: next, `O=P([O-])([O-])[O-].[Na+].[Na+].[Na+]` [Trisodium phosphate]: 0.

(Values after patent US20040235982A1, “Polymer emulsions resistant to biodeterioration” (priority 2003, published 2004).)
